US20040242665A1, “Hair composition containing a styrylpyrazole compound, and use thereof for stimulating or inducing hair or eyelash growth and/or reducing loss thereof” (SOCIETE L'OREAL S.A., priority 2002, published 2004)
pIC50: −log10 of the molar value.

How the values were obtained:
[1] = biological target: T1, 15-PGDH (Homo sapiens, UniProt P15428); experiment: Test on 15-PGDH (spectrophotometric, 340 nm, PGE2 and NAD); assay type: biochemical; details: for pIC50: pH 7.4 Tris buffer, 37° C., 50 μM prostaglandin E2, read-out: Inhibition of 15-PGDH IC50dh
T1 construct: made in house
T1 sequence (P15428 1-266): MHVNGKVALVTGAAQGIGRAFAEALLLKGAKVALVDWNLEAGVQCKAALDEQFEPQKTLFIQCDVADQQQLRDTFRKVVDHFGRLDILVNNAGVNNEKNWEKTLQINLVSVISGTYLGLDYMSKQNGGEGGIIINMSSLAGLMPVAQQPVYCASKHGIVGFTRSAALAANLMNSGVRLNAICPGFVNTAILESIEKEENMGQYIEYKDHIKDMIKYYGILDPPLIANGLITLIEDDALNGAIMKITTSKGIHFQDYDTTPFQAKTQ
Method: The enzyme 15-PGDH is obtained as described in patent application FR 02/05067 filed in the name of L'Oreal, as a suspension in a medium adjusted to a concentration of 0.3 mg/ml and then blocked at −80° C. For the purposes of the test, this suspension is thawed and stored in ice.
In parallel, a 100 mM, pH 7.4 Tris buffer containing 0.1 mM of dithiothreitol (D5545, Sigma-Aldrich, L'isle D'Abeau Chesne, BP 701, 38297, Saint Quentin Fallavier), 1.5 mM of P-NAD (N6522, Sigma-Aldrich, L'isle D'Abeau Chesne, BP 701, 38297, Saint Quentin Fallavier), and 50 μM of prostaglandin E2 (P4172, Sigma-Aldrich, L'isle D'Abeau Chesne, BP 701, 38297, Saint Quentin Fallavier) is prepared.
(§1) 0.965 ml of this buffer (brought to 37° C. beforehand) is introduced into the cuvette of a spectrophotometer (Perkin-Elmer, Lambda 2) thermostatically maintained at 37° C., the measuring wavelength of which is set at 340 nm. 0.035 ml of enzymatic suspension at 37° C. is introduced into the cuvette concomitantly with the recording (corresponding to an increase in the optical density at 340 nm). The maximum reaction rate is recorded.

[2] = biological target: T2, PGF synthase (Homo sapiens, UniProt P42330); experiment: Test on PGF synthase (spectrophotometric, 340 nm, 9,10-phenanthrenequinone and NADPH); assay type: biochemical; details: pH 6.5 Tris buffer, 37° C., 20 μM 9,10-phenanthrenequinone, 100 μM β-NADPH; read-out: Inhibition of PGF synthase IC50fs
T2 construct: made in house
T2 sequence (P42330 1-323): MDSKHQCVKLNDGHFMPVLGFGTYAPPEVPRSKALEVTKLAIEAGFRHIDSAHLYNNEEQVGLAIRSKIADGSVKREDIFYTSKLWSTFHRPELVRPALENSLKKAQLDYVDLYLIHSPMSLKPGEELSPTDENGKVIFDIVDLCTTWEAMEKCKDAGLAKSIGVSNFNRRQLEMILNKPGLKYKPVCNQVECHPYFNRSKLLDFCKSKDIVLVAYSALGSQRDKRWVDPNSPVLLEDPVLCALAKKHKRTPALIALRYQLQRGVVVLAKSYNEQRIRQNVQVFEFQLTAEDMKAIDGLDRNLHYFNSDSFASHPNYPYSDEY
Method: The enzyme PGFS is obtained as described in document FR-A-02/05067, at a concentration of 0.5 mg/ml, as a suspension in a suitable medium, and blocked at −80° C. For the purposes of the test, this suspension is thawed and stored in ice.
In parallel, a 100 mM, pH 6.5 Tris buffer containing 20 μm of 9,10-phenanthrenequinone* (P2896, Sigma-Aldrich, L'isle D'Abeau Chesne, BP 701, 38297, Saint Quentin Fallavier) and 100 μM of β-NADPH (N1630, Sigma-Aldrich, L'isle D'Abeau Chesne, BP 701, 38297, Saint Quentin Fallavier) is prepared in a brown flask (protected from light).
*A stock solution with a titre of 1 mM is prepared in absolute ethanol and brought to 40° C.; the flask is placed in an ultrasound tank to facilitate the dissolution of the product.
as §1, with “0.950” for “0.965”, “0.05” for “0.035”, “a reduction” for “an increase”
The test values (containing compound (I)) are compared with the control value (without compound (I)); the results indicated represent the concentration at which compound (I) inhibits 50% of the enzymatic activity of PGFS, noted as IC50fs.

| Compound | pIC50 [1] | pIC50 [2] | Selectivity (IC50fs/IC50dh ratio) ([1]; 15-PGDH relative to PGF synthase) |
| --- | --- | --- | --- |
| N#C/C(=C\c1ccccc1Cl)c1nn(-c2ccccc2)c(N)c1C#N [Compound 7] | 5.52 | < 4.30 |  |
| N#C/C(=C\c1c(Cl)cccc1Cl)c1nn(-c2ccccc2)c(N)c1C#N [Compound 6] | 6.10 | < 4.30 |  |
| N#C/C(=C\c1c(Cl)cccc1Cl)c1nn(CCO)c(N)c1C#N [Compound 1a] | 5.52 | < 4.30 |  |
| COc1ccccc1/C=C(\C#N)c1nn(-c2ccccc2)c(N)c1C#N [Compound 9] | 5.30 |  |  |
| N#C/C(=C\c1ccccc1)c1nn(-c2ccccc2)c(N)c1C#N [Compound 8] | 4.30 | < 4.12 | >1.5 |
